Measured values taken from patent publication US8772341B2, “Compositions for the treatment of hoof diseases” (DeLaval Holding AB, priority 2006, dated 2014).

Columns and labels:
[1] = tested on: Bovine Digital Dermatitis (BDD) associated treponeme strains; assay: Treponema study, broth microdilution germicidal susceptibility (MIC/MBC); format: cell-based; details: for MBC (minimal bactericidal concentration): average over six Treponema cultures
From the text: In an experiment carried out at the University of Liverpool, Liverpool, U.K., Treponema species were isolated from dairy farms and six cultures were used to measure the minimum inhibitory concentration (MIC, the lowest concentration which results in maintenance or reduction of inoculum's viability) and minimal bactericidal concentration (MBC, the lowest concentration which results in biocidal activity) of several commonly used germicides.
Six Bovine Digital Dermatitis (BDD) associated treponeme strains (Table 1) were used to investigate in vitro susceptibility of BDD associated Treponema (Evans, N. J.; Brown, J.; Demirkan, I.; Carter, S. D.; Hart, C. A. “In vitro susceptibility of Bovine Digital Dermatitis associated Treponema to antimicrobial agents” to be submitted to Antimicrob. Agents Chemother. To be submitted for publication September 2007). The strains included two isolates from each of three distinct phylogroups corresponding to three proposed new taxa, Treponema medium subsp. bovis, Treponema bovis and Treponema pedis (Evans, N. J.; Brown, J.; Demirkan, I. Murray, R. D.; Vink, D.; Blowey, R. W.; Hart, C. A.; Carter, S. D. “Tremponema medium subsp. bovis subsp. nov., Treponema bovis sp. nov. and Treponema pedis sp. nov.; novel spirochaetes associated with Bovine Digital Dermatitis.” International Journal of Systematic and Evolutionary Microbiology. Submitted for publication Oct. 18, 2006). […]
To determine MIC values, absorbance at 540 nm was measured for the microplate wells using a Multiskan microtitre plate reader (Thermo Scientific, Hampshire, U.K.). Measurements were recorded before and after incubation at 36° C. under anaerobic conditions—three days for T. pedis strains and four days for T. bovis and T. medium subsp. bovis strains. […] Cell growth was determined by comparison of the absorbance measurement immediately before and after incubation. […]
Microplates were incubated for a further four days at 36° C. under anaerobic conditions. Growth was assessed using phase contrast microscopy. […]

[2] = tested on: hoof diseases (heel erosion, interdigital dermatitis, foot rot, white line abscess, digital dermatitis); assay: field trial of hoof bath at a commercial dairy farm; format: in vivo, cows; details: for Digital Dermatitis, number of hooves / Foot Rot, number of hooves / Heel Erosion, number of hooves / Interdigital Dermatitis, number of hooves / Total number of hoof problems / White Line Abscess, number of hooves: 178 hooves
Protocol: An 18% solution of N,N-bis(3-aminopropyl)dodecylamine with 0.17% FD&C Red #40 and 0.28% FD&C Yellow #5 was tested in a field trial at a commercial dairy farm. The product was diluted at a rate of 1+66 V/V and used to fill a hoof bath trough that the cows walked through as they left the milking parlor. A fresh hoof bath solution was prepared every day and the cows walked through the solution once each day of the week. For a month before the trial began no hoof bath treatment was applied to the cows. At the start of the trial a complete evaluation of the front and hind hooves was performed by a certified hoof trimmer, along with a veterinarian, who recorded the diseases observed in each hoof. The evaluation of the hooves was again performed after the hoof bath had been used for two months. All hooves that were present for both evaluations, and were not were not treated with antibiotics and wrapped at the first evaluation, were included in the data. […] The trial included 178 hooves.

red blood cells = assay: in vitro irritation test on isolated red blood cells (haemolysis, denaturation); format: cell-based, calf; details: 18% solution
Protocol: (§1) The germicidal activity of a large number of ingredients has been tested for the ability to kill Escherichia coli and Staphylococcus aureus in mixtures that have been contaminated with 10% and 20% manure. E. coli and S. aureus were chosen as representative bacteria for screening purposes. Solutions of the mixtures with 10% manure and bacteria were prepared, and the reduction in the concentration of bacteria was determined after 30 seconds and again after 5 minutes. In addition, the formulas were evaluated for skin irritation based on in vitro test data. The testing method used was that of Wolfgang J. W. Pape, Udo Hoppe: In vitro Methods for the Assessment of Primary Local Effects of Topically Applied Preparations. Skin Pharmacol. (1991), 4: 205-212, which is incorporated herein by reference.
Irritation tests were performed to determine whether or not the disclosed compositions would be mild enough for topical application. These tests involved two measurements made on fresh calf blood, where red blood cells were isolated by adding 50 mL of sodium citrate buffer (17.03 g trisodium citrate+8.45 g citric acid diluted to 1 L with bacteria-free DI water) to every 450 mL of blood, then repetitively washing with sodium citrate buffer and centrifuging to remove white blood cells and plasma.
Compositions disclosed herein were introduced into a container containing the isolated red blood cells and values for Haemolysis (H50); a Denaturation Index value (DI); and a Lysis/Denaturation Ratio (L/D) were determined using methods disclosed by Wolfgang J. W. Pape, Udo Hoppe: In vitro Methods for the Assessment of Primary Local Effects of Topically Applied Preparations. Skin Pharmacol. (1991), 4: 205-212. The haemolysis—or tendency of the red blood cells to rupture when in contact with the test product—was measured by the half-haemolysis value H50. The denaturation of protein caused by the test product was measured by the denaturation index (DI). The overall irritation value for a product was determined by the ratio of the H50/DI which is referred to as the lysis/denaturation quotient. The overall irritation score is given by the lysis/denaturation value which is calculated by the equation: L/D=H50 (measured in ppm)/DI (measured in %).
The higher the ppm value for H50 the less irritating the product. A crude scale is H50>500 ppm (non-irritant); 120-500 (slight irritant), 30-120 (moderate irritant), 10-30 (irritant) and 0-10 (strong irritant).
The L/D ratio is the primary value used to determine irritation. […]

E. coli (ATCC 11229) = assay: modified AOAC sanitizer test (germicidal activity, with or without manure); format: cell-based, Escherichia coli
Protocol: as §1
(§2) Experiments were performed to test the germicidal properties of the disclosed compositions using a modified version of the AOAC sanitizer test (Association of Official Analytical Chemists. 1990. Official Methods of Analysis, Pages 138-140 in Germicidal and Detergent Sanitizing Action of Disinfectants 960.09, Vol. I. 15th ed. AOAC, Arlington, Va.). According to this procedure, manure was collected from a dairy farm, dispensed into flasks and autoclaved at 121° C. and 17 psi for 30 minutes. Manure samples were then stored in a freezer until needed. When needed, manure was thawed at room temperature then dispensed into 250 mL Erlenmeyer flasks in amounts appropriate for the challenge desired (10 g for 10% manure, 20 g for 20% manure, etc.). The flasks with manure, and any empty flasks needed, were capped with aluminum foil and autoclaved at 134° C. and ˜20 psi for 4 min.
(§3) Freeze-dried pellets of E. coli (ATCC 11229) and S. aureus (ATCC 6538) were hydrated, placed in test tubes containing nutrient agar and incubated at 37° C. for 24 hours. Sterile buffer (0.0003 M phosphate adjusted to pH 6.6) was used to dilute and transfer the bacteria to additional nutrient agar tubes, which were incubated for another 24 hours. S. aureus was then diluted with buffer and transferred to nutrient agar in French bottles, and E. coli was diluted and transferred to fresh nutrient agar tubes. Both types of bacteria were incubated at 37° C. for 72 hours. E. coli was then diluted and transferred to nutrient agar in French bottles. Sterile buffer and glass beads were added to the S. aureus French bottles and the solution was vacuum filtered through a #2 filter. […] After 24 hours, the E. coli suspension was collected in the same manner.
(§4) Germicide sample solutions were prepared and dispensed into the flasks containing manure. For tests without manure, 99 mL of germicide were added to an empty, sterile, 250 mL flask. […]

S. aureus (ATCC 6538) = assay: as above; format: cell-based, Staphylococcus aureus
Protocol: as §1, §2, §3, §4

[3] = Primary Evaluation (start of trial, before hoof bath)
[4] = Secondary Evaluation after two months of daily hoof bath, 1+66 V/V
[5] = 18% solution diluted 1+33 with potable water, 5 minutes exposure, 20% manure
[6] = 18% solution diluted 1+66 with potable water (0.27%), 30 seconds exposure, 20% manure
[7] = 18% solution diluted 1+66 with potable water (0.27%), 5 minutes exposure, no manure
[8] = 18% solution diluted 1+180 with potable water (0.1%), 5 minutes exposure, 10% manure

Compound: O=S(=O)([O-])[O-].[Cu+2] [copper sulfate]
- MBC (minimal bactericidal concentration) [1]: 0.0054 % w/w

Compound: C=O [formaldehyde]
- average MEC ([1]; six Treponema cultures): 0.0094 % w/w

Compound: CCCCCCCCCCCCN(CCCN)CCCN [N,N-bis(3-aminopropyl)dodecylamine]
- Digital Dermatitis, number of hooves [2, 3]: 33
- Foot Rot, number of hooves [2, 3]: 0
- Heel Erosion, number of hooves [2, 3]: 43
- Interdigital Dermatitis, number of hooves [2, 3]: 2
- Total number of hoof problems [2, 3]: 78
- White Line Abscess, number of hooves [2, 3]: 0
- Digital Dermatitis, number of hooves [2, 4]: 25
- Foot Rot, number of hooves [2, 4]: 0
- Interdigital Dermatitis, number of hooves [2, 4]: 0
- Total number of hoof problems [2, 4]: 51
- White Line Abscess, number of hooves [2, 4]: 1
- Heel Erosion, number of hooves ([2]; Secondary Evaluation after two months of daily hoof bath, 18% solution with dyes diluted 1+66 V/V): 25
- reduction in the total number of hoof problems ([2]; after two months of hoof bath treatment): ~35%
- hooves with digital dermatitis at the beginning of the trial that were cured ([2]; after two months of treatment): Forty
- hooves not infected at the beginning that did not develop any signs of digital dermatitis ([2]; by the end of the two month treatment): ninety
- MBC (minimal bactericidal concentration) [1]: 0.00051 % w/w
- skin irritation (conclusion from L/D) (red blood cells): does not cause skin irritation
- combined L/D value (lysis/denaturation ratio) (red blood cells; L/D = H50/DI): 7×10^3
- DI value (denaturation index) (red blood cells; calf red blood cells): 2.6%
- H50 value (half-haemolysis) (red blood cells; calf red blood cells): 18000 ppm
- log reduction (E. coli (ATCC 11229); [5]): > 8.0 log
- log reduction (E. coli (ATCC 11229); [6]): > 8 log
- log reduction (E. coli (ATCC 11229); [7]): > 8 log
- log reduction (E. coli (ATCC 11229); [8]): > 7.97 log
- log reduction (S. aureus (ATCC 6538); [5]): > 7.94 log
- log reduction (S. aureus (ATCC 6538); [6]): 4.8 log
- log reduction (S. aureus (ATCC 6538); [7]): > 8 log
- log reduction (S. aureus (ATCC 6538); [8]): > 7.94 log
